How the values were obtained:
Experiment in all cases: relative viability (nuclei count vs DMSO), 5 days (fraction); higher = more cells survive
[1] = compound: OCc1c[nH]c2ccccc12 [Indole-3-carbinol] + CS(=O)(=O)N1CCN(Cc2cc3nc(-c4cccc5[nH]ncc45)nc(N4CCOCC4)c3s2)CC1 [Pictilisib] (partner 1 µM)
Summary of the method: (§1)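 Relative viability is defined as nuclei in treated wells over nuclei in vehicle wells. Duplicate plates were run and medians reported. Lung cancer cell lines in 1536-well plates were dosed by pin tool one day after seeding, with one drug or with a fixed anchor-drug dose plus five library-drug doses (not always all listed) in √10 steps, and nuclei were counted after 5 days.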

[2] = compound: OCc1c[nH]c2ccccc12 [Indole-3-carbinol] + CC(=O)Nc1cccc(-n2c(=O)n(C3CC3)c(=O)c3c(Nc4ccc(I)cc4F)n(C)c(=O)c(C)c32)c1 [Trametinib] (partner 0.02 µM)
Summary of the method: as §1

[3] = compound: OCc1c[nH]c2ccccc12 [Indole-3-carbinol] + NC(=O)Nc1cc(-c2cccc(F)c2)sc1C(=O)N[C@H]1CCCNC1 [AZD7762] (partner 0.2 µM)
Summary of the method: as §1

[4] = compound: OCc1c[nH]c2ccccc12 [Indole-3-carbinol] + O=C(c1cc(Cc2n[nH]c(=O)c3ccccc23)ccc1F)N1CCN(C(=O)C2CC2)CC1 [Olaparib] (partner 8 µM)
Summary of the method: as §1

[5] = compound: OCc1c[nH]c2ccccc12 [Indole-3-carbinol] + C[C@@H](Oc1cc(-c2cnn(C3CCNCC3)c2)cnc1N)c1c(Cl)ccc(F)c1Cl [Crizotinib] (partner 1 µM)
Summary of the method: as §1

Cell Line	relative viability ([1]; first compound 0.253 µM)	relative viability ([1]; first compound 0.8 µM)	relative viability ([1]; first compound 2.53 µM)	relative viability ([1]; first compound 8 µM)	relative viability ([2]; first compound 0.253 µM)	relative viability ([2]; first compound 0.8 µM)	relative viability ([2]; first compound 2.53 µM)	relative viability ([2]; first compound 8 µM)	relative viability ([3]; first compound 0.253 µM)	relative viability ([3]; first compound 0.8 µM)	relative viability ([3]; first compound 2.53 µM)	relative viability ([3]; first compound 8 µM)	relative viability ([4]; first compound 0.253 µM)	relative viability ([4]; first compound 0.8 µM)	relative viability ([4]; first compound 2.53 µM)	relative viability ([4]; first compound 8 µM)	relative viability ([5]; first compound 0.253 µM)	relative viability ([5]; first compound 0.8 µM)	relative viability ([5]; first compound 2.53 µM)	relative viability ([5]; first compound 8 µM)
NCI-H1395	0.616	0.67	0.639	0.662	1	1.01	1.08	0.995	0.404	0.41	0.379	0.399	0.42	0.478	0.48	0.413				
NCI-H1793	0.461	0.204	0.376	0.271	0.403	0.442	0.455	0.481	0.424	0.468	0.507	0.455	0.947	0.917	0.505	0.764				
NCI-H522					0.794	0.798	0.839	0.749	0.78	0.92	0.956	0.912	0.657	0.564	0.663	0.608				
NCI-H520	0.287	0.255	0.27	0.254	0.702	0.575	0.741	0.772					0.336	0.341	0.383	0.265	0.826	0.948	1.02	0.754
UMC-11	0.792	0.836	0.764	0.789	0.713	0.727	0.675	0.683					0.549	0.359	0.499	0.944	0.589	0.708	0.696	0.577
SK-LU-1	0.568	0.405	0.522	0.551	0.637	0.453	0.469	0.582					0.478	0.438	0.569	0.589	1.01	1.01	0.989	0.823
SW 1573	0.361	0.577	0.544	0.425	0.512	0.605	0.534	0.564					0.499	0.526	0.546	0.479	0.722	0.936	0.833	0.678
SW 900					0.866	0.867	0.82	0.992	0.625	0.619	0.705	0.624	0.983	1.37	0.883	0.899				
NCI-H2228	0.514	0.374	0.349	0.506	0.576	0.614	0.501	0.581					0.659	0.707	0.532	1.01	0.582	0.461	0.567	0.454
COR-L23	0.876	0.848	0.828	0.674	0.619	0.557	0.703	0.549					0.37	0.411	0.372	0.31	0.751	0.724	0.748	0.485

— the supplement of paper PMC10307832
